These are literature values, as cited in patent publication US20220370332A1, “PRODUCT FOR DYEING KERATINOUS MATERIAL, CONTAINING AMINOSILICONE, A CHROMOPHORIC COMPOUND, PRESERVATIVE AND ETHOXYLATED FATTY ALCOHOL” (Henkel AG & Co. KGaA, priority 2019, published 2022).

The conditions of this data set: 25° C.

With `O=C([O-])c1c(Cl)c(Cl)c(Cl)c(Cl)c1-c1c2c(Br)cc(=O)c(Br)c-2oc2c(Br)c(O)cc(Br)c12.O=C([O-])c1c(Cl)c(Cl)c(Cl)c(Cl)c1-c1c2c(Br)cc(=O)c(Br)c-2oc2c(Br)c(O)cc(Br)c12.[Na+].[Na+]` [Acid Red 92, disodium salt of 3,4,5,6-tetrachloro-2-(1,4,5,8-tetrabromo-6-hydroxy-3-oxoxanthen-9-yl)benzoic acid], the solubility in water result was “greater than 10 g/L”.

In the case of `O=C([O-])C1=NN(c2ccc(S(=O)(=O)[O-])cc2)C(=O)C1N=Nc1ccc(S(=O)(=O)[O-])cc1.[Na+].[Na+].[Na+]` (centres unmarked) [Acid Yellow 23, trisodium salt of 4,5-dihydro-5-oxo-1-(4-sulfophenyl)-4-((4-sulfophenyl)azo)-1H-pyrazole-3-carboxylic acid], the “solubility in water” value is “highly soluble in water”. For `Nc1cc(S(=O)(=O)[O-])cc2cc(S(=O)(=O)[O-])c(N=Nc3ccccc3)c(O)c12.[Na+].[Na+]` [Acid Red 33, diantrium salt of 5-amino-4-hydroxy-3-(phenylazo)-naphthalene-2,7-disulphonate], the solubility in water is 2500 µg/mL. `CCN(Cc1cccc(S(=O)(=O)[O-])c1)c1ccc(C(=C2C=CC(=[N+](CC)Cc3cccc(S(=O)(=O)[O-])c3)C=C2)c2ccccc2S(=O)(=O)[O-])cc1.[Na+].[Na+]` [Acid Blue 9]: the solubility in water entry is reported as “more than 20 % by weight”. Turning to `O=S(=O)([O-])c1ccc(N=Nc2c(O)ccc3ccccc23)cc1.[Na+]` [Acid Orange 7, sodium salt of 4-[(2-hydroxy-1-naphthyl)azo]benzene sulphonate], the solubility in water result is listed as “more than 7 g/L”.
